For data set [1], the system named is Xanthomonas oryzae pv. oryzae (Xoo). Description: microbe, parasite or virus in culture. The format is cell-based. The conditions noted are these: for MIC: Xanthomonas oryzae.
For data set [2] the test system is unchanged. In words: microbe, parasite or virus in culture. It is filed as cell-based. The conditions noted are these: for EC50 / inhibition at 20 µg/mL / inhibition at 100 µg/mL: Xanthomonas oryzae; for EC50: read-out: EC50 for inhibition of Xoo growth; for inhibition at 20 µg/mL / inhibition at 100 µg/mL: read-out: Inhibition (%) of Xoo growth.
For data set [3], the system named is XooFtsZ. It is filed as binding, Xanthomonas oryzae pv. oryzae. The conditions noted are these: pH 7.4.
The target in data set [4] is T1, recombinant XooFtsZ GTPase (Xanthomonas oryzae pv. oryzae, UniProt A0ACG7R862). The conditions noted are these: read-out: IC50 XooFtsZ GTPase activity; cited from earlier work.
The test system of data set [5] is rice bacterial leaf blight infected by Xoo. As to conditions: in vivo; cited from earlier work.
For data set [6], the system named is rice plants. The conditions noted are these: in vivo.
Data set [7] concerns rice bacterial leaf blight infected by Xoo. The format is in vivo. Also noted: curative control efficiency against rice bacterial leaf blight: dose or concentration left out as unconfirmed.
A short description of data set [8]: in vitro. As to conditions: rat.
The test system of data set [9] is Xoo cells. The format is cell-based, Xanthomonas oryzae pv. oryzae. Also noted: average Xoo cell length: unit not given here. The conditions noted are these: TEM.
The subject of data set [10] is XooFtsZ. It is filed as biochemical, Xanthomonas oryzae pv. oryzae. As to conditions: TEM, 20 μM XooFtsZ, 100 and 200 μM compound.
The subject of data set [11] is human non-small cell lung cancer cell line (A549).
The target in data set [12] is T1, recombinant XooFtsZ GTPase. In words: biochemical. As to conditions: for inhibition at 100 µM / inhibition at 200 µM: read-out: Inhibition Rate (%) of XooFtsZ GTPase activity.
[13] abbreviates: read-out: MIC against Xoo, in vitro.

Molecules are shown by their SMILES. In brackets after ≈: the same amount, converted by molar mass. Several values for one entry are separate records, joined by “and”; a condition that tells them apart may be missing. Equal values may be shown once. Where a name gives a salt, the structure may show the parent alone. Read-outs that look alike come from different tables or passages of the source.

As to `COc1cc([C@@H]2c3cc4c(cc3[C@@H](O)[C@H]3COC(=O)[C@H]23)OCO4)cc(OC)c1O` [DMEP, 4′-demethylepipodophyllotoxin], the “MIC against Xoo” value in [1] turned out to be 50 µg/mL (≈ 125 µM). Besides, the “EC50 for inhibition of Xoo growth” value in [2] is 39.7 µg/mL and 38.7 µg/mL. Further, in data set [3], the “Stern–Volmer quenching constant Kq” value was 7.593 × 10^11 M^−1 S^−1 and the “Stern–Volmer quenching constant Ksv” value worked out at 7593 M⁻¹. Further, the IC50 in data set [4] is 279 µM and 278 µM. Moreover, in [5], the “curative control efficiency against rice bacterial leaf blight” value (from here on “curative control efficiency”) is on record as 50.0% and the “protective control efficiency against rice bacterial leaf blight” value (from here on “protective control efficiency”) was 46.8%.
Regarding `CCCCC(CC)C(=O)Oc1c(OC)cc(C2c3cc4c(cc3C(O)C3COC(=O)C23)OCO4)cc1OC` (stereo not shown) [B2], in data set [2], the EC50 is 153 ± 9.2 µg/mL (≈ 291 µM), the inhibition at 20 µg/mL came out at 7.3 ± 2.2% and the inhibition at 100 µg/mL came to 44.2 ± 3.2%. Besides, in data set [6], the “phytotoxicity to rice plants” value was “non-toxic”. Moreover, in data set [7] (pot experiments), the “curative control efficiency” value was found to be 54.9% and the “protective control efficiency” value is listed as 48.4%. Further, in [3] (10 μM XooFtsZ, 25 °C), the “Stern–Volmer quenching constant Kq” value is recorded as 3.845 × 10^11 M^−1 S^−1 and the “Stern–Volmer quenching constant Ksv” value worked out at 3845 M⁻¹. In [8], this molecule registered an IC50 of 60.8 µM. Besides, the “average Xoo cell length” value in data set [9] (100 mg L^−1, 12 h) was 4.03 ± 2.20. The “average Xoo cell length” value in [9] (100 mg L^−1, 24 h) was 5.86 ± 3.23. Further, the “effect on XooFtsZ self-assembly” value in [10] is “fewer single-stranded protofilaments and an increase in disordered and disorganized protein aggregation”. Moreover, the “cytotoxicity (comparison)” value in data set [11] was “more cytotoxic than either DMEP or gefitinib”. Besides, in data set [12], the IC50 came to 159 ± 16.7 µM, the inhibition at 100 µM came out at 48.6 ± 4.1% and the inhibition at 200 µM was 54.8 ± 5.2%.
On to `COc1cc([C@@H]2c3cc4c(cc3[C@@H](O[C@@H]3O[C@@H]5CO[C@@H](c6cccs6)O[C@H]5[C@H](O)[C@H]3O)[C@H]3COC(=O)[C@H]23)OCO4)cc(OC)c1O` [Teniposide], for which the MIC in data set [1] (setting [13]) is more than 400 µg/mL. Also, in data set [2], the EC50 was more than 200 µg/mL and the inhibition at 100 µg/mL worked out at 20.3 ± 9.21%. Besides, in [3] (10 μM XooFtsZ, 25 °C), the “Stern–Volmer quenching constant Kq” value is listed as 2.920 × 10^11 M^−1 S^−1 and the “Stern–Volmer quenching constant Ksv” value worked out at 2920 M⁻¹. The “effect on Xoo cell morphology” value in data set [9] (100 mg L^−1, 24 h) was “induced cellular elongation”.
On to `Nc1nnc([S-])s1.Nc1nnc([S-])s1.[Cu+2]` [TC, Thiodiazole copper], for which, in data set [7] (in vivo), the “curative control efficiency” value is reported as 31.2% and the “protective control efficiency” value came out at 30.4%.
Take `COc1cc([C@@H]2c3cc4c(cc3[C@H](O)[C@H]3COC(=O)[C@H]23)OCO4)cc(OC)c1OC` [Podophyllotoxin]: the MIC in data set [1] (read-out: MIC against Xoo) is more than 400 µg/mL. The EC50 in data set [2] is more than 200 µg/mL. Also, in data set [3], the “Stern–Volmer quenching constant Kq” value was 2.203 × 10^11 M^−1 S^−1 and the “Stern–Volmer quenching constant Ksv” value is 2203 M⁻¹.
The like results for `COc1cc([C@@H]2c3cc4c(cc3[C@H](O)[C@H]3COC(=O)[C@@H]23)OCO4)cc(OC)c1OC` [Picropodophyllotoxin] were, in that order, more than 400 µg/mL, more than 200 µg/mL, 3.603 × 10^11 M^−1 S^−1 and 3603 M⁻¹.
On to `COc1cc([C@@H]2c3cc4c(cc3[C@@H](O[C@@H]3O[C@@H]5CO[C@@H](C)O[C@H]5[C@H](O)[C@H]3O)[C@H]3COC(=O)[C@H]23)OCO4)cc(OC)c1O` [Etoposide], for which, in data set [1] (setting [13]), the MIC is more than 400 µg/mL. Besides, in data set [2], the 50% effective concentration (EC50) is more than 200 µg/mL and the inhibition at 100 µg/mL is 18.8 ± 9.6%. Besides, in data set [3] (10 μM XooFtsZ, 25 °C), the “Stern–Volmer quenching constant Kq” value is listed as 2.396 × 10^11 M^−1 S^−1 and the “Stern–Volmer quenching constant Ksv” value worked out at 2396 M⁻¹. In addition, the “effect on Xoo cell morphology” value in data set [9] (100 mg L^−1, 24 h) is recorded as “induced cellular elongation”.
Take `CCC(CC)C(=O)Oc1c(OC)cc(C2c3cc4c(cc3C(O)C3COC(=O)C23)OCO4)cc1OC` (stereo not shown) [B1]: the MIC in [1] (setting [13]) was more than 400 µg/mL. Further, in data set [2], the EC50 is more than 200 µg/mL, the inhibition at 20 µg/mL turned out to be 5.33 ± 1.13% and the inhibition at 100 µg/mL is 17.4 ± 6%.
As to `COc1ccc2cc3[n+](cc2c1OC)CCc1cc2c(cc1-3)OCO2` [Berberine, Berberine hydrochloride], in [3] (10 μM XooFtsZ, 25 °C), the “Stern–Volmer quenching constant Kq” value is 1.789 × 10^12 M^−1 S^−1 and the “Stern–Volmer quenching constant Ksv” value was 17890 M⁻¹. Moreover, in data set [12], the IC50 was determined as 225 ± 18.5 µM, the inhibition at 100 µM came out at 34.1 ± 2.6% and the inhibition at 200 µM turned out to be 48.7 ± 4.1%.
On to `COc1cc(C2c3cc4c(cc3C(O)C3COC(=O)C23)OCO4)cc(OC)c1OCC1CO1` (stereo not shown) [A1], for which, in data set [1] (setting [13]), the MIC was more than 400 µg/mL. For the same molecule, in data set [2], the EC50 was more than 200 µg/mL, the inhibition at 20 µg/mL was 10.6 ± 0.9% and the inhibition at 100 µg/mL is 18.3 ± 2.15%.
Take `S=c1[nH]nc(NCNc2n[nH]c(=S)s2)s1` [BT, bismerthiazol]: the “MIC against Xoo” value in data set [1] (in vitro) is 50 µg/mL (≈ 180 µM). Besides, the “Inhibition (%) of Xoo growth” value in data set [2] (20 mg L^−1) turned out to be 30.0 ± 2.20%; in [2] (100 mg L^−1), 92.7 ± 1.70%. The “EC50 for inhibition of Xoo growth” value in data set [2] (in vitro) came out at 36.3 ± 2.50 µg/mL.
In the case of `COc1cc([C@@H]2c3cc4c(cc3C[C@H]3COC(=O)[C@@H]32)OCO4)cc(OC)c1OC` [Deoxypodophyllotoxin], the MIC in data set [1] (setting [13]) is more than 400 µg/mL. For the same molecule, in data set [2], the EC50 was more than 200 µg/mL, the inhibition at 20 µg/mL is 12.2 ± 4.8% and the inhibition at 100 µg/mL stood at 10.3 ± 3.5%. In addition, in data set [3] (10 μM XooFtsZ, 25 °C), the “Stern–Volmer quenching constant Kq” value is reported as 2.276 × 10^11 M^−1 S^−1 and the “Stern–Volmer quenching constant Ksv” value amounted to 2276 M⁻¹.
For `COc1cc(C2c3cc4c(cc3C(O)C3COC(=O)C23)OCO4)cc(OC)c1O` (stereo not shown) [DMEOP, 4′-demethylpodophyllotoxin], the “MIC against Xoo” value in data set [1] is more than 400 µg/mL. Also, the “EC50 for inhibition of Xoo growth” value in data set [2] was more than 200 µg/mL. Further, in data set [3], the “Stern–Volmer quenching constant Kq” value is on record as 1.757 × 10^11 M^−1 S^−1 and the “Stern–Volmer quenching constant Ksv” value came to 1757 M⁻¹.
For `COc1cc(C2c3cc4c(cc3C(O)C3COC(=O)C23)OCO4)cc(OC)c1OS(=O)(=O)c1ccc(C)cc1` (stereo not shown) [B3], the MIC in data set [1] (setting [13]) is more than 400 µg/mL. For the same molecule, in data set [2], the EC50 is more than 200 µg/mL, the inhibition at 20 µg/mL is 4.33 ± 0.8% and the inhibition at 100 µg/mL was determined as 10.2 ± 1.2%.

One may read the IC50 as the concentration at which inhibition is half-maximal. The EC50 is the concentration at which the effect is half-maximal. Broadly, the inhibition is the drop in the measured response relative to a control, in per cent.

Source of the values: paper PMC9408963 (International Journal of Molecular Sciences, 2022).
